Assay results from article PMC12288536, “Development of an atrazine immunoassay based on highly catalytically active Au@PtNPs and specific nanobody” (Research Square, 2025).

System: Nanobody-26
Experiment: ic-ELISA based on atrazine nanobody (indirect competitive)
Type: binding, alpaca
Details: coating antigen 2e-BSA
Procedure: In this study, ic-ELISA was first used to assess the effect of two coating antigens on the sensitivity of the nanobody. The optimal concentrations of nanobody and coating antigen were confirmed by the checkerboard method, and the sensitivity of nanobody was evaluated under optimal conditions. Detailed procedures for sensitivity assessment of nanobody were presented in the Supplementary Material.
Cross-reactivity evaluation was performed using the developed ic-ELISA for atrazine, simazine, terbuthylazine, terbutryn, cyanuric acid, ametryn, melamine, atrazine-2-hydroxy and 2-chloro-4,6-diamino-1,3,5-triazine. The above compounds were prepared into standard solutions at certain concentrations, and the standard inhibition curves were established. The cross-reactions were calculated according to the respective IC50 obtained from the standard inhibition curves and the following formula: Cross-reaction(CR%)=IC50(atrazine)∕IC50(the other structurally similar compound)

Row | Compound | IC50 (Nanobody) [µg/mL]
1 | Nc1nc(N)nc(Cl)n1 [2-chloro-4,6-diamino-1,3,5-triazine] | 1.1
2 | CCNc1nc(NC(C)C)nc(SC)n1 [Ametryn] | 0.23
3 | CCNc1nc(NC(C)C)[nH]c(=O)n1 [Atrazine-2-hydroxy] | > 100
4 | CCNc1nc(Cl)nc(NC(C)C)n1 [Atrazine] | 0.062
5 | Oc1nc(O)nc(O)n1 [Cyanuric acid] | > 100
6 | Nc1nc(N)nc(N)n1 [Melamine] | > 100
7 | CCNc1nc(Cl)nc(NCC)n1 [Simazine] | 0.18
8 | CCNc1nc(Cl)nc(NC(C)(C)C)n1 [Terbuthylazine] | 0.085
9 | CCNc1nc(NC(C)(C)C)nc(SC)n1 [Terbutryn] | > 100

Same assay, conditions: cross-reaction = IC50(atrazine)/IC50(analog)

Row | Compound | CR% (Nanobody) [%]
10 | Nc1nc(N)nc(Cl)n1 [2-chloro-4,6-diamino-1,3,5-triazine] | 5.40
11 | CCNc1nc(NC(C)C)nc(SC)n1 [Ametryn] | 27.4
12 | CCNc1nc(NC(C)C)[nH]c(=O)n1 [Atrazine-2-hydroxy] | < 0.1
13 | CCNc1nc(Cl)nc(NC(C)C)n1 [Atrazine] | 100
14 | Oc1nc(O)nc(O)n1 [Cyanuric acid] | < 0.1
15 | Nc1nc(N)nc(N)n1 [Melamine] | < 0.1
16 | CCNc1nc(Cl)nc(NCC)n1 [Simazine] | 33.6
17 | CCNc1nc(Cl)nc(NC(C)(C)C)n1 [Terbuthylazine] | 72.7
18 | CCNc1nc(NC(C)(C)C)nc(SC)n1 [Terbutryn] | < 0.1

Same assay, conditions: cross-reaction = IC50(atrazine)/IC50(analog), listed as ametryn

Row | Compound | CR% (Nanobody)
19 | CCNc1nc(NC(C)C)nc(SC)n1 [Ametryn] | about 30%

Same assay, conditions: cross-reaction = IC50(atrazine)/IC50(analog), listed as simazine

Row | Compound | CR% (Nanobody)
20 | CCNc1nc(Cl)nc(NCC)n1 [Simazine] | about 30%

Same assay, conditions: cross-reaction = IC50(atrazine)/IC50(analog), listed as terbutryn

Row | Compound | CR% (Nanobody)
21 | CCNc1nc(NC(C)(C)C)nc(SC)n1 [Terbutryn] | greater than 70%

System: Au@PtNPs-nanobody probe
Experiment: dc-ELISA based on Au@PtNPs-nanobody probe (direct competitive), incl. matrix effect evaluation
Type: binding, alpaca
Details: cross-reaction = IC50(atrazine)/IC50(analog)
Procedure: The sodium chloride interference method was used to determine the optimal conditions for coupling. Adjust the Au@PtNPs-145 nm (10 mL) to the optimal pH with 0.1 M K2CO3, then the optimal amount of nanobody and BSA (0.1 g) were added dropwise to the solution and stirred for 30 minutes. PEG20000 (0.05 g) was then added to the above solution and incubated at 4°C overnight after stirring for 30 minutes. The probe was purified by fractionation and centrifugation at 4°C, and the precipitate was collected and re-dissolved in 1 mL of probe diluent (pH 7.2, PBS buffer containing 1% sucrose, 0.1% BSA, 0.1% Tween 20 and 0.1% alginate) at 4°C for storage and further use.
Au@PtNPs-nanobody was used to develop a new dc-ELISA, and the optimal concentrations of probe and coating antigen were confirmed by the checkerboard method, and the sensitivity of dc-ELISA was evaluated under optimal conditions. The cross-reactivity of the dc-ELISA to atrazine analogs was also evaluated to compare with the specificity of ic-ELISA.
Tap water, river water and soil without atrazine were selected as samples for the evaluation of matrix effects. The effect of tap water, river water and soil on the sensitivity of the detection method was evaluated using two newly developed immunoassay methods based on Au@PtNPs-nanobody. The accuracy of the developed method for real samples was also verified using high performance liquid chromatography (HPLC). The solid sample (10 g) was simultaneously extracted with 20 ml of methanol in a vortex mixer for 15 minutes. The mixture was then centrifuged at 4000 rpm for 5 minutes and the supernatant was collected, diluted appropriately and analyzed by HPLC. After confirming that the samples were free of atrazine, atrazine solution was added to the samples so that the final concentrations of atrazine in the samples were 1 μg/mL, 5 μg/mL, and 10 μg/mL, and then the samples were subjected to dc-ELISA. HPLC was also used for validation.
Considering the real samples detection, complex matrix can affect the recognition and binding between antibodies and coating antigens/analytes, which seriously interferes with the performance of the immunoassay and affects the accuracy of the analytical results. Therefore, matrix effects should be minimized or eliminated during sample analysis to ensure the accuracy of the immunoassay method. The simplest method for matrix elimination or reduction is to dilute the sample with the assay buffer. In this study, tap water, river water and soil were selected for matrix effect evaluation. The tap water samples confirmed to be none of atrazine were diluted directly with 1×PBS to a total dilution ratio of 2-, 4-, 8-, and 16-fold, and then different concentrations of atrazine solution were prepared with these obtained buffer solutions, respectively. […] But, tap water samples diluted […] had higher IC50 when compared with assay buffer or other diluted samples. […] Therefore, the 4-fold dilution was selected for the tap water samples. Similarly, river water samples diluted 4-fold and 8-fold had higher IC50 values compared to assay buffer or other diluted samples. […] Therefore, 16-fold dilution was selected for the river water sample (Fig. 4C). Soil samples without atrazine were used as blank samples and extracted with methanol, then diluted with 1×PBS resulting in a total dilution ratio of 10, 20, 40, 60 and 80-fold. Atrazine standard solutions were prepared using the above obtained buffer solutions. […] When the soil matrix was diluted 60 and 80-fold, there was no significant difference between their maximum absorbance and IC50 . Therefore, the 60-fold dilution was selected for the next spike and recovery study. Spiked-recovery validation using both HPLC and dc-ELISA to evaluate the precision of the dc-ELISA. […] Also, the results of the dc-ELISA method were approximately consistent with that of HPLC.

Row | Compound | CR% (Au@PtNPs-nanobody)
22 | Nc1nc(N)nc(Cl)n1 [2-chloro-4,6-diamino-1,3,5-triazine] | 3.42%
23 | CCNc1nc(NC(C)C)nc(SC)n1 [Ametryn] | 3.55%
24 | CCNc1nc(NC(C)C)[nH]c(=O)n1 [Atrazine-2-hydroxy] | < 0.1%
25 | CCNc1nc(Cl)nc(NC(C)C)n1 [Atrazine] | 100%
26 | Oc1nc(O)nc(O)n1 [Cyanuric acid] | < 0.1%
27 | Nc1nc(N)nc(N)n1 [Melamine] | < 0.1%
28 | CCNc1nc(Cl)nc(NCC)n1 [Simazine] | 6.01%
29 | CCNc1nc(Cl)nc(NC(C)(C)C)n1 [Terbuthylazine] | 10.9%
30 | CCNc1nc(NC(C)(C)C)nc(SC)n1 [Terbutryn] | < 0.1%
31 | CCNc1nc(N)nc(Cl)n1 [deisopropylatrazine] | less than 7%

Same assay, conditions: cross-reaction = IC50(atrazine)/IC50(analog), listed as simazine

Row | Compound | CR% (Au@PtNPs-nanobody)
32 | CCNc1nc(Cl)nc(NCC)n1 [Simazine] | less than 7%

Same assay, conditions: cross-reaction = IC50(atrazine)/IC50(analog), listed as terbutryn

Row | Compound | CR% (Au@PtNPs-nanobody)
33 | CCNc1nc(NC(C)(C)C)nc(SC)n1 [Terbutryn] | greater than 10%

Same assay, conditions: optimal conditions, 1×PBS containing 5% methanol

Row | Compound | IC50 (Au@PtNPs-nanobody) [µg/mL]
34 | Nc1nc(N)nc(Cl)n1 [2-chloro-4,6-diamino-1,3,5-triazine] | 0.93
35 | CCNc1nc(NC(C)C)nc(SC)n1 [Ametryn] | 0.90
36 | CCNc1nc(NC(C)C)[nH]c(=O)n1 [Atrazine-2-hydroxy] | > 100
37 | CCNc1nc(Cl)nc(NC(C)C)n1 [Atrazine] | 0.032
38 | Oc1nc(O)nc(O)n1 [Cyanuric acid] | > 100
39 | Nc1nc(N)nc(N)n1 [Melamine] | > 100
40 | CCNc1nc(Cl)nc(NCC)n1 [Simazine] | 0.53
41 | CCNc1nc(Cl)nc(NC(C)(C)C)n1 [Terbuthylazine] | 0.29
42 | CCNc1nc(NC(C)(C)C)nc(SC)n1 [Terbutryn] | > 100
